Measured values: ChEMBL document CHEMBL5113438, “Discovery of highly potent and selective CRBN-recruiting EGFRL858R/T790M degraders in vivo” (Eur J Med Chem, 2022)

What was measured:
NCI-H1975 [1] = experiment: Induction of apoptosis in human NCI-H1975 cells assessed as viable cells at 1.0 uM incubated for 48 hrs by AnnexinV-FITC/propidium iodide staining based flow cytometry analysis (reference value: 96.2 % ); format: functional; conditions: read-out: Activity
[2] = test system: Epidermal growth factor receptor (Homo sapiens), P00533 [L858R,T790M]; experiment: Inhibition of EGFR L858R/T790M mutant phosphorylation in human NCI-H1975 cells at 1 uM measured after 8 hrs by Western blot assay; format: cell-based
NCI-H1975 [3] = experiment: Induction of apoptosis in human NCI-H1975 cells assessed as necrotic cells at 0.1 uM incubated for 48 hrs by AnnexinV-FITC/propidium iodide staining based flow cytometry analysis (reference value: 3.28 % ); format: functional
[4] = Volume of distribution at steady state in Sprague-Dawley rat at 1 mg/kg, iv measured upto 24 hrs by LC-MS/MS analysis; format: ADME, organism-based; conditions: in vivo, read-out: Vdss
[5] = Tmax in Sprague-Dawley rat at 10 mg/kg, ip measured upto 24 hrs by LC-MS/MS analysis; format: ADME, organism-based; conditions: in vivo
NCI-H1975 [6] = experiment: Inhibition of ERK phosphorylation in human NCI-H1975 cells preincubated under serum starvation for 8 hrs followed by compound addition measured after 48 hrs by Western blot analysis; format: cell-based; conditions: dose 10-1000 nM, DDE = dose-dependent effect
[7] = Toxicity in BALB/c mouse xenografted with human NCI-H1975 cells assessed as change in body weight pretreated with compound at 10 mg/kg, ip administered once daily for 24 days and measured every 3 days […]; format: organism-based; conditions: in vivo, 576 h, time 24 day
NCI-H1299 [8] = experiment: Induction of apoptosis in human NCI-H1299 cells assessed as viable cells at 1.0 uM incubated for 48 hrs by AnnexinV-FITC/propidium iodide staining based flow cytometry analysis (reference value: 98.05 % ); format: functional; conditions: read-out: Activity
NCI-H1975 [9] = experiment: Induction of apoptosis in human NCI-H1975 cells assessed as early apoptotic cells at 0.1 uM incubated for 48 hrs by AnnexinV-FITC/propidium iodide staining based flow cytometry analysis (reference value: 0.11 % ); format: functional
NCI-H1975 [10] = experiment: Induction of apoptosis in human NCI-H1975 cells assessed as late apoptotic cells at 0.1 uM incubated for 48 hrs by AnnexinV-FITC/propidium iodide staining based flow cytometry analysis (reference value: 1.35 % ); format: functional
HEK-293T = experiment: Cytotoxicity activity against HEK293T cells upto 300 uM incubated for 72 hrs by CCK-8 assay; format: toxicity, cell-based; conditions: human
NCI-H1975 [11] = experiment: Antiproliferative activity against human NCI-H1975 cells expressing EGFR L858R/T790M incubated for 72 hrs by CCK-8 assay; format: functional, cell-based; conditions: NCI-H1975, 72 h
NCI-H1299 [12] = experiment: Induction of apoptosis in human NCI-H1299 cells assessed as early apoptotic cells at 1.0 uM incubated for 48 hrs by AnnexinV-FITC/propidium iodide staining based flow cytometry analysis (reference value: 0.11 % ); format: functional
NCI-H1299 [13] = experiment: Induction of apoptosis in human NCI-H1299 cells assessed as viable cells at 0.1 uM incubated for 48 hrs by AnnexinV-FITC/propidium iodide staining based flow cytometry analysis (reference value: 98.05 % ); format: functional; conditions: read-out: Activity
NCI-H1975 [14] = experiment: Induction of cell cycle arrest in human NCI-H1975 cells assessed as accumulation of cells in G2/M phase by PI staining based flow cytometry method; format: functional; conditions: dose 0.1-1 µM, DDE = dose-dependent effect
NCI-H1975 [15] = experiment: Induction of apoptosis in human NCI-H1975 cells assessed as viable cells at 0.1 uM incubated for 48 hrs by AnnexinV-FITC/propidium iodide staining based flow cytometry analysis (reference value: 96.2 % ); format: functional; conditions: read-out: Activity
[16] = target: Serine/threonine-protein kinase AKT (Homo sapiens) (UniProt P31751+Q9Y243+P31749); experiment: Inhibition of Akt phosphorylation in human NCI-H1975 cells preincubated under serum starvation for 8 hrs followed by compound addition measured after 48 hrs by Western blot analysis; format: cell-based; conditions: dose 10-1000 nM, DDE = dose-dependent effect
NCI-H1975 [17] = experiment: Induction of apoptosis in human NCI-H1975 cells assessed as necrotic cells at 1.0 uM incubated for 48 hrs by AnnexinV-FITC/propidium iodide staining based flow cytometry analysis (reference value: 3.28 % ); format: functional
L02 = experiment: Cytotoxicity activity against human L02 cells upto 300 uM incubated for 72 hrs by CCK-8 assay; format: toxicity, cell-based; conditions: l02, 72 h
NCI-H1299 [18] = experiment: Induction of apoptosis in human NCI-H1299 cells assessed as early apoptotic cells at 0.1 uM incubated for 48 hrs by AnnexinV-FITC/propidium iodide staining based flow cytometry analysis (reference value: 0.11 % ); format: functional
[19] = AUC (0 to infinity) in Sprague-Dawley rat at 10 mg/kg, ip measured upto 24 hrs by LC-MS/MS analysis; format: ADME, organism-based; set-up: time < 24 hrs, dose 10 mg/kg, route ip; conditions: in vivo
[20] = Selectivity ratio IC50 for human NCI-H1299 cells expressing wild type EGFR to human NCI-H1975 cells expressing EGFR L858R/T790M; format: functional
HCC827 = experiment: Antiproliferative activity against human NCI-HCC827 cells expressing EGFR del19 incubated for 72 hrs by CCK-8 assay; format: functional, cell-based; conditions: HCC827, 72 h
[21] = Toxicity in BALB/c mouse xenografted with human NCI-H1975 cells assessed as drug tolerability at 10 mg/kg, ip administered once daily for 24 days; format: organism-based; conditions: in vivo, 576 h, time 24 day
[22] = AUC (0 to t) in Sprague-Dawley rat at 10 mg/kg, ip measured upto 24 hrs by LC-MS/MS analysis; format: ADME, organism-based; set-up: dose 10 mg/kg, time < 24 hrs, route ip; conditions: in vivo
[23] = Toxicity in BALB/c mouse xenografted with human NCI-H1299 cells assessed as change in body weight pretreated with compound at 10 mg/kg, ip administered once daily for 24 days and measured every 3 days […]; format: organism-based; conditions: in vivo, 576 h, time 24 day
HMEC = experiment: Cytotoxicity activity against HMEC cells upto 300 uM incubated for 72 hrs by CCK-8 assay; format: toxicity, cell-based; conditions: human
[24] = Half life in Sprague-Dawley rat at 1 mg/kg, iv measured upto 24 hrs by LC-MS/MS analysis; format: ADME, organism-based; conditions: in vivo
NCI-H1299 [25] = experiment: Induction of apoptosis in human NCI-H1299 cells assessed as late apoptotic cells at 0.1 uM incubated for 48 hrs by AnnexinV-FITC/propidium iodide staining based flow cytometry analysis (reference value: 1.53 % ); format: functional
[26] = Clearance in Sprague-Dawley rat at 1 mg/kg, iv measured upto 24 hrs by LC-MS/MS analysis; format: ADME, organism-based; conditions: in vivo
A549 = experiment: Antiproliferative activity against human A549 cells expressing wild type EGFR incubated for 72 hrs by CCK-8 assay; format: functional, cell-based; conditions: A549, 72 h
NCI-H1975 [27] = experiment: Induction of apoptosis in human NCI-H1975 cells assessed as late apoptotic cells at 1.0 uM incubated for 48 hrs by AnnexinV-FITC/propidium iodide staining based flow cytometry analysis (reference value: 1.35 % ); format: functional
[28] = Half life in Sprague-Dawley rat at 10 mg/kg, ip measured upto 24 hrs by LC-MS/MS analysis; format: ADME, organism-based; conditions: in vivo
NCI-H1299 [29] = experiment: Antiproliferative activity against human NCI-H1299 cells expressing wild type EGFR incubated for 72 hrs by CCK-8 assay; format: functional, cell-based; conditions: NCI-H1299, 72 h

Sequence of Serine/threonine-protein kinase AKT (Homo sapiens) (P31749 whole entry, looked up): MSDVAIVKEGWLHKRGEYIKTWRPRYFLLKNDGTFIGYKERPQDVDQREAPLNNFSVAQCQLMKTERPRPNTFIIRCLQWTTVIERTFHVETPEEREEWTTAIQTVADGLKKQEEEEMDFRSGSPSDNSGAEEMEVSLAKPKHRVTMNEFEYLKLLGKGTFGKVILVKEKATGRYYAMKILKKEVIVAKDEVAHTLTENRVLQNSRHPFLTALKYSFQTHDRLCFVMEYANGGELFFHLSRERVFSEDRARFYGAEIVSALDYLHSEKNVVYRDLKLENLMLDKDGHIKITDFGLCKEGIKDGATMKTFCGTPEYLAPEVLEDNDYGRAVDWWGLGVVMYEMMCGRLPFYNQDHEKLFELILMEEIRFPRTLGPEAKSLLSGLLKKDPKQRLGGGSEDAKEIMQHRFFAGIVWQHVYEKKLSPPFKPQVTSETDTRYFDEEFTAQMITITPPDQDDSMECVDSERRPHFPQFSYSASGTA
Sequence of Serine/threonine-protein kinase AKT (Homo sapiens) (P31751 whole entry, looked up): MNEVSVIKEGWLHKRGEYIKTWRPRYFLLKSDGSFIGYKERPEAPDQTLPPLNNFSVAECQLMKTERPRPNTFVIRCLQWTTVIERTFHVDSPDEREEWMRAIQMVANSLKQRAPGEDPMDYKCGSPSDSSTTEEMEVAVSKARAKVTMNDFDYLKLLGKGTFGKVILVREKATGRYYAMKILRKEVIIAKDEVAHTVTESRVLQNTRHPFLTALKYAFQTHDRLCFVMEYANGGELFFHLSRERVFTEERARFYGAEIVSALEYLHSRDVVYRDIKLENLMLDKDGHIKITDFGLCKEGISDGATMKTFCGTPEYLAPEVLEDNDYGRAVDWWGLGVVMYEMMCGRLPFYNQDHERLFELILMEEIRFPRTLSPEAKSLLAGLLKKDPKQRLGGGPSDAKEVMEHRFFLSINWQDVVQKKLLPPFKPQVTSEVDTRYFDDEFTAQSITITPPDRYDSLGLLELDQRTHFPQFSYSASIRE
Sequence of Serine/threonine-protein kinase AKT (Homo sapiens) (Q9Y243 whole entry, looked up): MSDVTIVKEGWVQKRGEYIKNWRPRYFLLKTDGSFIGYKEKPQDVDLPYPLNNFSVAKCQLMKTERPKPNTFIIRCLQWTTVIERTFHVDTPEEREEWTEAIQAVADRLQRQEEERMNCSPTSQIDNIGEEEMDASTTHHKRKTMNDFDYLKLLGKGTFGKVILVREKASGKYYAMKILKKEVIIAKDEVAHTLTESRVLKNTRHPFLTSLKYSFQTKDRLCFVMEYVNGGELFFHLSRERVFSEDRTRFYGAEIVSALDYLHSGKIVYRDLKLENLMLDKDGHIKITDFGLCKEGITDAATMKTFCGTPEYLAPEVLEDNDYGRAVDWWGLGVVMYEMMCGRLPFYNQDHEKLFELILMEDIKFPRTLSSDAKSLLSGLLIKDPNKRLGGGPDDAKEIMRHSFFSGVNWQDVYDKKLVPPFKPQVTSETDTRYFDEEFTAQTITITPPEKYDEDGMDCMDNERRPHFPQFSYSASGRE

| SMILES | viability at 1 µM (NCI-H1975 [1]) | inhibition (INH) [2] | Activity (NCI-H1975 [3]) | Vd [4] | Tmax [5] | inhibition (NCI-H1975 [6]) | Activity [7] | viability at 1 µM (NCI-H1299 [8]) | Activity (NCI-H1975 [9]) | Activity (NCI-H1975 [10]) | Activity (HEK-293T) | IC50 (NCI-H1975 [11]) | Activity (NCI-H1299 [12]) | viability at 0.1 µM (NCI-H1299 [13]) | Activity (NCI-H1975 [14]) | viability at 0.1 µM (NCI-H1975 [15]) | inhibition [16] | Activity (NCI-H1975 [17]) | Activity (L02) | Activity (NCI-H1299 [18]) | other results |
| --- | --- | --- | --- | --- | --- | --- | --- | --- | --- | --- | --- | --- | --- | --- | --- | --- | --- | --- | --- | --- | --- |
| C#CCN(CCC(=O)Nc1cccc2c1CN(C1CCC(=O)NC1=O)C2=O)CCN(C)c1cc(OC)c(Nc2nccc(-c3cn(C)c4ccccc34)n2)cc1NC(=O)C=C (stereo not drawn) | 50.8% | 58% | 0.96% | 7.38 L/kg | 4.67 h | Dde | Non-Toxic | 97.5% | 1.51% | 6.59% | Non-Toxic | 58.1 nM | 0.08% | 97.7% | Dde | 90.8% | Dde | 14.3% | Non-Toxic | 0.11% | AUC(0-inf) [19]: 1610 ng·h/mL; Ratio IC50 [20]: 1721; IC50 (HCC827): 1210 nM; Activity [21]: Non-Toxic; AUC(0-t) at 24 h [22]: 1540 ng·h/mL; Activity [23]: Non-Toxic; Activity (HMEC): Non-Toxic; half-life [24]: 2.29 h; Activity (NCI-H1299 [25]): 1.79%; clearance ([26]; Sprague-Dawley): 37.1 mL/min/kg; IC50 (A549): > 100000 nM; Activity (NCI-H1975 [27]): 24.3%; half-life [28]: 2.17 h; IC50 (NCI-H1299 [29]): > 100000 nM |
| C#CCN(CCCC(=O)Nc1cccc2c1CN(C1CCC(=O)NC1=O)C2=O)CCN(C)c1cc(OC)c(Nc2nccc(-c3cn(C)c4ccccc34)n2)cc1NC(=O)C=C (stereo not drawn) | 69% | 56% | 9.3% | 7.87 L/kg | 4.5 h | Dde | Non-Toxic | 97.8% | 0.23% | 4.8% | Non-Toxic | 46.8 nM | 0.082% | 98% | Dde | 85.6% | Dde | 15.2% | Non-Toxic | 0.22% | AUC(0-inf) [19]: 973 ng·h/mL; Ratio IC50 [20]: 2137; IC50 (HCC827): 1120 nM; Activity [21]: Non-Toxic; AUC(0-t) at 24 h [22]: 971 ng·h/mL; Activity [23]: Non-Toxic; Activity (HMEC): Non-Toxic; half-life [24]: 2.64 h; Activity (NCI-H1299 [25]): 1.27%; CL ([26]; iv, 1 mg/kg, 24 h): 34.55 mL/min/kg; IC50 (A549): > 100000 nM; Activity (NCI-H1975 [27]): 25.1%; half-life [28]: 1.85 h; IC50 (NCI-H1299 [29]): > 100000 nM |
